Here are results for 21 compounds from US8586579B2, “Anellated pyridine compounds” (Hoffmann-La Roche Inc., priority 2010, dated 2013).

One series concerns the target human D2 receptor (Homo sapiens (Human), UniProt P14416). Put plainly: Radioligand binding assay, [3H]-spiperone, human D2 receptor. Conditions: membranes of HEK293 EBNA cells expressing human D2; 0.7 nM [3H]-spiperone. The procedure, abridged:
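Membranes from HEK293 EBNA cells transiently expressing human D2 were incubated 1 h at RT with ~0.7 nM [3H]-spiperone and ten compound concentrations (10 μM–0.1 nM) in Tris buffer with NaCl, MgCl2, KCl, CaCl2, EDTA, pH 7.4.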

The next series deals with human D3 receptor (Homo sapiens (Human), UniProt P35462). As to the kind of experiment: Radioligand binding assay, [3H]-spiperone, human D3 receptor. The note with it: membranes of HEK293 EBNA cells expressing human D3; 0.5 nM [3H]-spiperone. The method in brief: (§1)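 Membranes from transiently transfected HEK293 EBNA cells were incubated 1 h at RT with ten compound concentrations (10 μM-0.1 nM) and radioligand: 0.5 nM [3H]-spiperone for D3 (Tris/NaCl/Mg/Ca buffer, pH 7.4) or 1.1 nM [3H]-ketanserin for 5-HT2A (Tris/MgCl2/EGTA, pH 7.4).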
Chain of human D3 receptor (P35462 whole entry): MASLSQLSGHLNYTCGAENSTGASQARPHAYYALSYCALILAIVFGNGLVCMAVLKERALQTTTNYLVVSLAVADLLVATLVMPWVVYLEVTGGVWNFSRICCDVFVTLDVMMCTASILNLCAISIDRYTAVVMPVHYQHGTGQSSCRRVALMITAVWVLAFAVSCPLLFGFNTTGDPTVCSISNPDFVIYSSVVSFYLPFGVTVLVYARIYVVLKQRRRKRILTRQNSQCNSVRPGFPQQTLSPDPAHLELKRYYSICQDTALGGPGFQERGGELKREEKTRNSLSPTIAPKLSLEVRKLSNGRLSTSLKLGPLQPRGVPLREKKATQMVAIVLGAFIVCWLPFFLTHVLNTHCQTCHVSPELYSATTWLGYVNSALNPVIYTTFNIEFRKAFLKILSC

The next series has as its target human 5-HT2A receptor (Homo sapiens (Human), UniProt P28223). Put plainly: Radioligand binding assay, [3H]-ketanserin, human 5-HT2A receptor. The method in brief: as §1
The mark [1] stands for this setting: membranes of HEK293 EBNA cells expressing human 5-HT2A, 1.1 nM [3H]-ketanserin.

SMILES strings stand for the structures. Like-named read-outs stand apart in the source and are kept apart here.

Chain of human 5-HT2A receptor (P28223 whole entry): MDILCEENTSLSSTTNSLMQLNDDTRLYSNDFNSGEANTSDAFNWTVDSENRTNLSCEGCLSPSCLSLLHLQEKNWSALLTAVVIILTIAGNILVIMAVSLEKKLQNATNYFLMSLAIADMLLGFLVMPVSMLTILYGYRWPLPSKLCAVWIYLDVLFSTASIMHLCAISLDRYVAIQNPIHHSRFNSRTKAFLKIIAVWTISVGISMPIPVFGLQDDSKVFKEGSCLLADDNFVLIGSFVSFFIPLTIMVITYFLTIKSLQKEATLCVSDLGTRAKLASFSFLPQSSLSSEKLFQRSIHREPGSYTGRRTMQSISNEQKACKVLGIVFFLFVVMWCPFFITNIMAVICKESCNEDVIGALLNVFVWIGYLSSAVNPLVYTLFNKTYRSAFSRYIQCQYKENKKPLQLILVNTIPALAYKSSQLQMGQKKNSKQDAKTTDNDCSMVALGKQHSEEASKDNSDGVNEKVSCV
Chain of human D2 receptor (P14416 whole entry): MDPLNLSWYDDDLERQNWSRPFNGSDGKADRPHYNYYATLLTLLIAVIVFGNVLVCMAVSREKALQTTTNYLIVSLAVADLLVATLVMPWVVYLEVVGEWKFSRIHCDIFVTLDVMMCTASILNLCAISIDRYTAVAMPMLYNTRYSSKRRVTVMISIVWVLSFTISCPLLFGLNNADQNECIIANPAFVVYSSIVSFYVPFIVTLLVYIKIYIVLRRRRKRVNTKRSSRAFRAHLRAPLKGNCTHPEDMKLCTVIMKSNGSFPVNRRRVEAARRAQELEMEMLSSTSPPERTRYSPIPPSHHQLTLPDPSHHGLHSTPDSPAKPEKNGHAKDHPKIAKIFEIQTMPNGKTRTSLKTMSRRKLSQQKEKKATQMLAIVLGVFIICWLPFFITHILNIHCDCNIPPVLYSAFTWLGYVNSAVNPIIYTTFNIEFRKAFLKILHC

In turn, `O=C(CC1CC1)N[C@H]1CC[C@H](CCN2CCN(c3nccc4c3CCO4)CC2)CC1` [Example 51, trans-2-Cyclopropyl-N-(4-{2-[4-(2,3-dihydro-furo[3,2-c]pyridin-4-yl)-piperazin-1-yl]-ethyl}-cyclohexyl)-acetamide] showed a melting point of 193 °C. Also, the inhibition constant (Ki) at human D2 receptor worked out at 587 nM. In addition, the inhibitory constant (Ki) on human D3 receptor was determined as 5.07 nM. Moreover, the Ki at human 5-HT2A receptor worked out at 13.7 nM.

Take `O=C(CCC(F)(F)F)N[C@H]1CC[C@H](CCN2CCN(c3nccc4c3CCO4)CC2)CC1` [Example 95, trans-N-(4-{2-[4-(2,3-Dihydro-furo[3,2-c]pyridin-4-yl)-piperazin-1-yl]-ethyl}-cyclohexyl)-4,4,4-trifluoro-butyramide]: the melting point was 195.5 °C. Besides, the inhibition constant Ki on human D2 receptor is 1250 nM. For the same compound, the inhibition constant Ki on human D3 receptor amounted to 20 nM. Besides, the inhibitory constant (Ki) on human 5-HT2A receptor is 29.6 nM.

`CO[C@H](C)C(=O)N[C@H]1CC[C@H](CCN2CCN(c3nccc4c3CCO4)CC2)CC1` [Example 135, trans-(R)—N-(4-{2-[4-(2,3-Dihydro-furo[3,2-c]pyridin-4-yl)-piperazin-1-yl]-ethyl}-cyclohexyl)-2-methoxy-propionamide]: the melting point worked out at 159 °C. The inhibitory constant (Ki) on human D2 receptor was determined as 680 nM. Moreover, the inhibition constant (Ki) on human D3 receptor was 109 nM. In addition, the inhibition constant Ki at human 5-HT2A receptor (setting [1]) was found to be 7 nM.

`O=C(N[C@H]1CC[C@H](CCN2CCN(c3nccc4c3CCO4)CC2)CC1)c1ccc(Cl)cc1` [Example 46, trans-4-Chloro-N-(4-{2-[4-(2,3-dihydro-furo[3,2-c]pyridin-4-yl)-piperazin-1-yl]-ethyl}-cyclohexyl)-benzamide] returned a melting point of 226.5 °C. Besides, the inhibitory constant (Ki) at human D2 receptor turned out to be 289 nM. Moreover, at human D3 receptor, the Ki was determined as 13.2 nM. Moreover, the inhibition constant Ki on human 5-HT2A receptor was 14.8 nM.

Consider `O=C(N[C@H]1CC[C@H](CCN2CCN(c3nccc4c3CCO4)CC2)CC1)C1CCOC1` (mixture of isomers) [Example 42, trans-N-(4-{2-[4-(2,3-Dihydrofuro[3,2-c]pyridin-4-yl)-piperazin-1-yl]-ethyl}-cyclohexyl)-rac-tetrahydrofuran-3-carboxamide], for which the melting point was determined as 208.5 °C. In addition, the Ki at human D2 receptor turned out to be 609 nM. For the same compound, the Ki at human D3 receptor stood at 18.2 nM. On human 5-HT2A receptor (setting [1]), the inhibition constant Ki came out at 9.9 nM.

Turning to `O=C(CC1COC1)N[C@H]1CC[C@H](CCN2CCN(c3nccc4c3CCO4)CC2)CC1` [Example 77, trans-N-(4-{2-[4-(2,3-Dihydro-furo[3,2-c]pyridin-4-yl)-piperazin-1-yl]-ethyl}-cyclohexyl)-2-oxetan-3-yl-acetamide], the melting point was 195 °C. On human D2 receptor, the Ki turned out to be 755 nM. Also, the inhibitory constant (Ki) on human D3 receptor is 12.1 nM. For the same compound, the Ki on human 5-HT2A receptor (setting [1]) was determined as 11 nM.

As for `COCCC(=O)N[C@H]1CC[C@H](CCN2CCN(c3ncc(C)c4occc34)CC2)CC1` [Example 107, trans-3-Methoxy-N-(4-{2-[4-(7-methyl-furo[3,2-c]pyridin-4-yl)-piperazin-1-yl]-ethyl}-cyclohexyl)-propionamide], the melting point was determined as 177 °C. In addition, the inhibition constant (Ki) on human D2 receptor turned out to be 2470 nM. In addition, the Ki on human D3 receptor is 30 nM. Moreover, the inhibition constant (Ki) on human 5-HT2A receptor (setting [1]) turned out to be 12 nM.

Take `O=C(N[C@H]1CC[C@H](CCN2CCN(c3nccc4c3CCO4)CC2)CC1)C1CC1(F)F` (stereo partly drawn) [Example 74, trans-2,2-Difluoro-cyclopropanecarboxylic acid (4-{2-[4-(2,3-dihydro-furo[3,2-c]pyridin-4-yl)-piperazin-1-yl]-ethyl}-cyclohexyl)-amide]: the melting point came out at 184.5 °C. The Ki on human D2 receptor was determined as 438 nM. Besides, at human D3 receptor, the Ki stood at 23.8 nM. For the same compound, the Ki on human 5-HT2A receptor (setting [1]) turned out to be 17.3 nM.

Take `CC(C)CCC(=O)N[C@H]1CC[C@H](CCN2CCN(c3nccc4c3CCO4)CC2)CC1` [Example 93, 4-Methyl-pentanoic acid trans-(4-{2-[4-(2,3-dihydro-furo[3,2-c]pyridin-4-yl)-piperazin-1-yl]-ethyl}-cyclohexyl)-amide]: the melting point amounted to 182.5 °C. Besides, on human D2 receptor, the inhibition constant Ki was 1280 nM. For the same compound, on human D3 receptor, the inhibition constant (Ki) stood at 22.7 nM. In addition, the Ki on human 5-HT2A receptor (setting [1]) came out at 24.6 nM.

For the compound `CC(C)(C)Oc1ccc(C(=O)N[C@H]2CC[C@H](CCN3CCN(c4nccc5c4CCO5)CC3)CC2)cc1` [Example 136, trans-4-tert-Butoxy-N-(4-{2-[4-(2,3-dihydro-furo[3,2-c]pyridin-4-yl)-piperazin-1-yl]-ethyl}-cyclohexyl)-benzamide], the melting point came out at 200 °C. Also, at human D2 receptor, the inhibition constant (Ki) is 3160 nM. For the same compound, the Ki on human D3 receptor stood at 69.5 nM. Further, on human 5-HT2A receptor (setting [1]), the Ki is 41.4 nM.

In turn, `O=C(N[C@H]1CC[C@H](CCN2CCN(c3nccc4c3CCO4)CC2)CC1)C1CC1` [Example 63, Cyclopropanecarboxylic acid trans-(4-{2-[4-(2,3-dihydro-furo[3,2-c]pyridin-4-yl)-piperazin-1-yl]-ethyl}-cyclohexyl)-amide] returned a melting point of 213 °C. The Ki on human D2 receptor was 486 nM. For the same compound, the inhibition constant Ki at human D3 receptor was determined as 18.5 nM. Besides, at human 5-HT2A receptor (setting [1]), the inhibitory constant (Ki) came out at 11.1 nM.

For `O=C(N[C@H]1CC[C@H](CCN2CCN(c3nccc4c3CCO4)CC2)CC1)c1ccc2c(c1)OCO2` [Example 121, Benzo[1,3]dioxole-5-carboxylic acid trans-(4-{2-[4-(2,3-dihydro-furo[3,2-c]pyridin-4-yl)-piperazin-1-yl]-ethyl}-cyclohexyl)-amide], the melting point was 243.5 °C. Besides, on human D2 receptor, the inhibition constant Ki came to 3370 nM. Besides, the Ki at human D3 receptor came out at 21.8 nM. Further, the Ki at human 5-HT2A receptor (setting [1]) stood at 17.6 nM.

`CCC(=O)N[C@H]1CC[C@H](CCN2CCN(c3nccc4c3CCO4)CC2)CC1` [Example 36, trans-N-(4-{2-[4-(2,3-Dihydrofuro[3,2-c]pyridin-4-yl)-piperazin-1-yl]-ethyl}-cyclohexyl)-propionamide] gave a melting point of 192.5 °C. In addition, the Ki at human D2 receptor is 813 nM. Also, the Ki on human D3 receptor amounted to 9.7 nM. Also, at human 5-HT2A receptor (setting [1]), the Ki turned out to be 13.3 nM.

`CN(C)S(=O)(=O)N[C@H]1CC[C@H](CCN2CCN(c3nccc4c3CCO4)CC2)CC1` [Example 66, N′-trans-(4-{2-[4-(2,3-dihydro-furo[3,2-c]pyridin-4-yl)-piperazin-1-yl]-ethyl}-cyclohexyl)-N,N-dimethyl-sulfamide] yielded a melting point of 139.5 °C. In addition, the Ki at human D2 receptor was 782 nM. On human D3 receptor, the Ki was determined as 24.9 nM. Further, the inhibition constant (Ki) on human 5-HT2A receptor (setting [1]) came out at 11.5 nM.

`O=C(N[C@H]1CC[C@H](CCN2CCN(c3nccc4c3CCO4)CC2)CC1)C1(O)CC1` [Example 58, 1-Hydroxy-cyclopropanecarboxylic acid trans-(4-{2-[4-(2,3-dihydro-furo[3,2-c]pyridin-4-yl)-piperazin-1-yl]-ethyl}-cyclohexyl)-amide] showed a melting point of 174.5 °C. Also, the inhibition constant Ki on human D2 receptor came to 593 nM. Moreover, the inhibition constant Ki at human D3 receptor is 27.1 nM. Also, the inhibition constant Ki on human 5-HT2A receptor (setting [1]) came to 5.92 nM.

In the case of `C[C@]1(O)CC[C@@H](C(=O)N[C@H]2CC[C@H](CCN3CCN(c4nccc5c4CCO5)CC3)CC2)CC1` [Example 55, cis-4-Hydroxy-4-methyl-cyclohexanecarboxylic acid trans-(4-{2-[4-(2,3-dihydro-furo[3,2-c]pyridin-4-yl)-piperazin-1-yl]-ethyl}-cyclohexyl)-amide], the melting point turned out to be 216.5 °C. Further, the Ki at human D2 receptor was found to be 475 nM. Further, the inhibitory constant (Ki) on human D3 receptor stood at 45.3 nM. For the same compound, on human 5-HT2A receptor (setting [1]), the Ki came to 6.14 nM.

The compound `O=C(N[C@H]1CC[C@H](CCN2CCN(c3nccc4c3CCO4)CC2)CC1)c1ccc(F)cc1` [Example 45, trans-N-(4-{2-[4-(2,3-Dihydro-furo[3,2-c]pyridin-4-yl)-piperazin-1-yl]-ethyl}-cyclohexyl)-4-fluoro-benzamide] displayed a melting point of 209.5 °C. Further, the Ki at human D2 receptor came out at 342 nM. The Ki at human D3 receptor came out at 10.7 nM. The Ki at human 5-HT2A receptor came to 11.1 nM.

On to `O=C(CC(F)(F)F)N[C@H]1CC[C@H](CCN2CCN(c3nccc4c3CCO4)CC2)CC1` [Example 60, trans-N-(4-{2-[4-(2,3-Dihydro-furo[3,2-c]pyridin-4-yl)-piperazin-1-yl]-ethyl}-cyclohexyl)-3,3,3-trifluoro-propionamide], for which the melting point stood at 195.5 °C. The Ki on human D2 receptor turned out to be 688 nM. On human D3 receptor, the Ki was determined as 6.55 nM. Besides, the Ki on human 5-HT2A receptor (setting [1]) stood at 11 nM.

Turning to `CS(=O)(=O)CC(=O)N[C@H]1CC[C@H](CCN2CCN(c3nccc4c3CCO4)CC2)CC1` [Example 39, trans-N-(4-{2-[4-(2,3-Dihydrofuro[3,2-c]pyridin-4-yl)-piperazin-1-yl]-ethyl}-cyclohexyl)-methylsulfonyl-acetamide], the melting point was found to be 260.5 °C. The inhibition constant Ki at human D2 receptor was determined as 1020 nM. For the same compound, the Ki at human D3 receptor worked out at 9.8 nM. Moreover, the Ki on human 5-HT2A receptor came to 16.1 nM.

Turning to `CC(=O)N[C@H]1CC[C@H](CCN2CCN(c3nc(C)cc4c3CCO4)CC2)CC1` [Example 100, trans-N-(4-{2-[4-(6-Methyl-2,3-dihydro-furo[3,2-c]pyridin-4-yl)-piperazin-1-yl]-ethyl}-cyclohexyl)-acetamide], the melting point was determined as 217.5 °C. The Ki on human D2 receptor came out at 915 nM. In addition, the Ki on human D3 receptor came to 7.58 nM. In addition, the Ki at human 5-HT2A receptor (setting [1]) amounted to 215 nM.

Consider `CC(C)C(=O)N[C@H]1CC[C@H](CCN2CCN(c3nccc4c3CCO4)CC2)CC1` [Example 75, trans-N-(4-{2-[4-(2,3-Dihydro-furo[3,2-c]pyridin-4-yl)-piperazin-1-yl]-ethyl}-cyclohexyl)-isobutyramide], for which the melting point turned out to be 219 °C. For the same compound, the inhibition constant Ki on human D2 receptor came out at 705 nM. At human D3 receptor, the Ki was 16.6 nM. Moreover, the Ki at human 5-HT2A receptor was 10.2 nM.
